Read-outs that look alike come from different tables or passages of the source.
Tests used:
PARP-1 = target: T1, PARP-1 (Homo sapiens, UniProt P09874); assay: PARP-1 inhibition assay (PARP-1 Chemiluminescent Assay Kit, BPS Bioscience); assay type: biochemical
T1 construct: purchased BPS Bioscience 80569
Procedure: (§1) The PARP-1 and PARP-2 inhibition assays were performed in outsourcing, by a CRO company, Shanghai Medicilon Inc. (Shanghai, China). […] Briefly, PARP-1 or PARP-2 biotinylated substrate was incubated with compounds or solvent control at varying concentrations and an assay buffer containing the PARP-1 or PARP-2 enzyme.

PARP-2 = target: T2, PARP-2 (Homo sapiens, UniProt Q9UGN5); assay: PARP-2 inhibition assay (PARP-2 Chemiluminescent Assay Kit, BPS Bioscience); assay type: biochemical
T2 construct: purchased BPS Bioscience 80552
T2 sequence (Q9UGN5 whole entry): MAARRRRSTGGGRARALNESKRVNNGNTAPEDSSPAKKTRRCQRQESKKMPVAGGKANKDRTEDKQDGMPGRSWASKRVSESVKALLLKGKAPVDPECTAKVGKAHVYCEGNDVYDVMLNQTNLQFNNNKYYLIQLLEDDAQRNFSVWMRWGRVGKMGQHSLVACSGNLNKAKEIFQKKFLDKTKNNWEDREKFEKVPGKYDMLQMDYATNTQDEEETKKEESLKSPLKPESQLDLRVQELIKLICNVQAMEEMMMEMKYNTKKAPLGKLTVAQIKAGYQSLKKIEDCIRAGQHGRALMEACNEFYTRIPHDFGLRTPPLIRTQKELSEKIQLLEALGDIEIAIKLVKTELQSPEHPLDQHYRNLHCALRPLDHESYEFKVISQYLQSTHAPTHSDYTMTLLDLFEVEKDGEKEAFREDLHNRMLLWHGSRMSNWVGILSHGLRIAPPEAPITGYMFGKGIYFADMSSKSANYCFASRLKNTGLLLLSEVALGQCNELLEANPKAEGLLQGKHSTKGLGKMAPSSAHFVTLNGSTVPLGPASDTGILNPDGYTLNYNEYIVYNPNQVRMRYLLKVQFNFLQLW
Procedure: as §1

[1] = test system: MDA-MB-436 (a BRCA-1-mutated breast cancer cell line); assay: Cell proliferation assay, three-day, CellTiter-Glo, MDA-MB-436; assay type: cell-based; settings: for IC50 / inhibition at 0.00508 µM / inhibition at 0.0152 µM / inhibition at 0.0457 µM / inhibition at 0.41 µM / inhibition at 1.23 µM / inhibition at 3.7 µM / inhibition at 11.11 µM / inhibition at 33.33 µM / inhibition at 100 µM: Homo sapiens
Procedure: (§2) A three-day assay was conducted. A cell suspension was prepared. Cell density was counted by an automated cell counter and then diluted to the required density, according to seeding density. 50 μL cells were seeded into 384-well plate in growth medium according to the plate map. The cells were incubated at 37 °C, 5% CO2 overnight.
(§3) 200× compound solution in DMSO was prepared and diluted with growth medium to 26× final concentration by addition of 26 μL 200× compounds to 174 μL growth medium. Then 2 μL of diluted compound solution was added to cells and the cell was incubated at 37 °C, 5% CO2 for 72 h.
(§4) The assay plate was equilibrated to room temperature prior to measurement. 15 μL of CellTiter-Glo Reagent was added into each well and the contents were mixed for 2 min on an orbital shaker to induce cell lysis. The cells were incubated at room temperature for 60 min to stabilize luminescent signal. Luminescence was recorded on the Envision system.

[2] = test system: CAPAN-1 (a BRCA-2-mutated pancreatic cancer cell line); assay: Cell proliferation assay, three-day, CellTiter-Glo, CAPAN-1; assay type: cell-based
Procedure: as §2, §3, §4

[3] = Homo sapiens, CAPAN-1, read-out: Inh % 1
[4] = Homo sapiens, CAPAN-1, read-out: Inh % 2

T1 sequence (P09874 whole entry): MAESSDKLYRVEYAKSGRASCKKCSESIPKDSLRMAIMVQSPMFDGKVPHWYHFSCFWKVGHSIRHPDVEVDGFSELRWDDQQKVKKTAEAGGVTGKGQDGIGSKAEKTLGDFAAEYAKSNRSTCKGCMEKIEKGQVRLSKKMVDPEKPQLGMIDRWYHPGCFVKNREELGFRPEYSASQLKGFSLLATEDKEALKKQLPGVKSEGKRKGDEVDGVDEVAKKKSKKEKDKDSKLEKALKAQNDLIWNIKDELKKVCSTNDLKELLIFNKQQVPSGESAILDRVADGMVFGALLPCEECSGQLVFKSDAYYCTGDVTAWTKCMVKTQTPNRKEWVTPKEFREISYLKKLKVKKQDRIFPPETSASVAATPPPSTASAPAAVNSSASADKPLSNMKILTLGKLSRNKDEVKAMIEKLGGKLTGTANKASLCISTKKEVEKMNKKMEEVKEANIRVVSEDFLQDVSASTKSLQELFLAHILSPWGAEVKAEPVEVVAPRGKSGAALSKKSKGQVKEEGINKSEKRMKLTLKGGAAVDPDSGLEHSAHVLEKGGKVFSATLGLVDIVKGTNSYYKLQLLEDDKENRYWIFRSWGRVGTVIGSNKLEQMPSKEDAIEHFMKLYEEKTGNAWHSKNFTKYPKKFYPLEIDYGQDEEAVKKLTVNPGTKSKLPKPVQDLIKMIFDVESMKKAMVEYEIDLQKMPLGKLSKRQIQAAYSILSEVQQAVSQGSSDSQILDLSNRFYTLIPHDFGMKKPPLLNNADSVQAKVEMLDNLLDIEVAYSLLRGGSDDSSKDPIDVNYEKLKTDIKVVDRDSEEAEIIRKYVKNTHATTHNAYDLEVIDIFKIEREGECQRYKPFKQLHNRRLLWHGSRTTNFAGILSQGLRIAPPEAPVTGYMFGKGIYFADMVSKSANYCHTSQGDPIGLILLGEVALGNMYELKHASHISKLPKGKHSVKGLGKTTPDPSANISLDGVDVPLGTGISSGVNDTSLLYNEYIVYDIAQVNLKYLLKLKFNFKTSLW

NC(=O)c1cccc2[nH]c(C3CCN(CCC(O)c4ccccc4)C3)nc12 (centres unmarked) [Compound 5cg, 2-(1-(3-Hydroxy-3-phenylpropyl)pyrrolidin-3-yl)-1H-benzo[d]imi-dazole-4-carboxamide]
inhibition at 0.01 µM (PARP-1; read-out: 10 nM inhibition% PAPR-1): -2.11%
inhibition at 0.01 µM (PARP-1; read-out: PARP-1 Inhibition % (10 nM)): -2.1%
inhibition at 0.01 µM (PARP-2; read-out: 10 nM inhibition% PAPR-2): 6.45%
inhibition at 0.01 µM (PARP-2; read-out: PARP-2 Inhibition % (10 nM)): 6.5%
IC50 ([1]; MDA-MB-436): 74.1 µM
IC50 ([1]; MDA-MB-436, 72 h): 74.1 µM
IC50 ([1]; MDA-MB-436, 72 h, read-out: MDA-MB-436 IC50 (μM)): 74.1 µM
inhibition at 0.00508 µM ([1]; MDA-MB-436, read-out: Inh % 1): 2.1%
inhibition at 0.0152 µM ([1]; MDA-MB-436, read-out: Inh % 1): -3.5%
inhibition at 0.0457 µM ([1]; MDA-MB-436, read-out: Inh % 1): -5.7%
inhibition at 0.41 µM ([1]; MDA-MB-436, read-out: Inh % 1): -16.8%
inhibition at 1.23 µM ([1]; MDA-MB-436, read-out: Inh % 1): -6%
inhibition at 3.7 µM ([1]; MDA-MB-436, read-out: Inh % 1): -10.1%
inhibition at 11.11 µM ([1]; MDA-MB-436, read-out: Inh % 1): 0.536%
inhibition at 33.33 µM ([1]; MDA-MB-436, read-out: Inh % 1): 21.6%
inhibition at 100 µM ([1]; MDA-MB-436, read-out: Inh % 1): 68%
inhibition at 0.00508 µM ([1]; MDA-MB-436, read-out: Inh % 2): -5%
inhibition at 0.0152 µM ([1]; MDA-MB-436, read-out: Inh % 2): -7%
inhibition at 0.0457 µM ([1]; MDA-MB-436, read-out: Inh % 2): -13.4%
inhibition at 0.41 µM ([1]; MDA-MB-436, read-out: Inh % 2): -9.8%
inhibition at 1.23 µM ([1]; MDA-MB-436, read-out: Inh % 2): -9.1%
inhibition at 3.7 µM ([1]; MDA-MB-436, read-out: Inh % 2): -17.7%
inhibition at 11.11 µM ([1]; MDA-MB-436, read-out: Inh % 2): -6.9%
inhibition at 33.33 µM ([1]; MDA-MB-436, read-out: Inh % 2): 10.8%
inhibition at 100 µM ([1]; MDA-MB-436, read-out: Inh % 2): 46.7%
LogIC50 ([1]; MDA-MB-436, curve fit on Log (uM) concentrations): 1.87
Top ([1]; MDA-MB-436, curve fit parameter (Inh %), '= 100.0' is a constrained value): = 100.0
LogIC50 ([2]; CAPAN-1, curve-fit output, Log (uM)): 2.199
IC50 ([2]; Homo sapiens, CAPAN-1, 72 h, read-out: CAPAN-1 IC50 (μM)): > 100 µM
inhibition at 0.00508 µM [2, 3]: 4.5%
inhibition at 0.0152 µM [2, 3]: 16.3%
inhibition at 0.0457 µM [2, 3]: 5.6%
inhibition at 0.41 µM [2, 3]: 14.3%
inhibition at 1.23 µM [2, 3]: 11.4%
inhibition at 3.7 µM [2, 3]: 16.5%
inhibition at 11.11 µM [2, 3]: 22%
inhibition at 33.33 µM [2, 3]: 33.5%
inhibition at 100 µM [2, 3]: 47.6%
inhibition at 0.00508 µM [2, 4]: -5.2%
inhibition at 0.0152 µM [2, 4]: -0.0618%
inhibition at 0.0457 µM [2, 4]: 0.1%
inhibition at 0.41 µM [2, 4]: 8.8%
inhibition at 1.23 µM [2, 4]: 2.5%
inhibition at 3.7 µM [2, 4]: 5.4%
inhibition at 11.11 µM [2, 4]: -1.6%
inhibition at 33.33 µM [2, 4]: 14%
inhibition at 100 µM [2, 4]: 38.6%

Source: publication PMC6572064, “Discovery of 2-(1-(3-(4-Chloroxyphenyl)-3-oxo- propyl)pyrrolidine-3-yl)-1H-benzo[d]imidazole-4-carboxamide: A Potent Poly(ADP-ribose) Polymerase (PARP) Inhibitor for Treatment of Cancer” (Molecules, 2019)
